Consider 9 compounds from article PMC4368603, “Cardiac Contractility Structure-Activity Relationship and Ligand-Receptor Interactions; the Discovery Of Unique and Novel Molecular Switches in Myosuppressin Signaling” (PLoS ONE, 2015).

Where “and” joins values, the source holds several entries; their conditions need not be identical. Identical values can stand only once. Square brackets hold non-standard residues; d marks the D form. Ends that are not written are not given here. Peptide text beside a SMILES is read from it. pGlu = O=C1CC[C@@H](C(=O)O)N1

Broadly, the EC50 is the concentration needed to bring the measured effect to its halfway point.

The subject of one experiment is R. prolixus heart. In kind it is in vivo, Rhodnius prolixus. The conditions noted are these: for EC50: 5th instar semi-intact preparation, 25 ± 2°C, heart rate as % of saline, non-linear regression, N = 10 animals per condition, read-out: EC50, dose-dependent decrease of R. prolixus heart rate (cardiac contractility). The protocol:
R. prolixus were maintained at 28°C under high humidity in a cycle of 12h:12h (L:D). The insects used were 5th instar 2–3 weeks post-ecdysis fed on chicken blood.
Fifth instar R. prolixus were placed ventral surface down on a dish with paraffin wax and dissected under physiological saline. Segments four to seven from the dorsal abdominal cuticle were removed using minuten pins leaving the dorsal vessel exposed. The semi-intact preparation was equilibrated in 20 μl saline for 20 minutes at room temperature (25° ± 2°C), replacing the fluid with fresh saline every five minutes. Heart rate was measured under saline after the final bath, counting the number of contractions in one minute. This counting was replicated three times for each preparation, and the results of the three countings were averaged. After this, the saline was removed and replaced with an equal volume of solution containing a peptide. The heart rate was measured and expressed as % of the control (saline). Ten animals were analyzed for control and for each experiment. The investigator who performed the bioassay was unaware of the peptide structures being tested.
Dose response curves were generated and the effective concentrations at half-maximal response (EC50) values were calculated using a non-linear regression with GraphPad Prism version 6.03. Activities of RhpMS, DrmMS, and analogs were compared to saline, set at 100%, using Single Factor ANOVA to calculate p values; significance was set at p ≤ 0.05.

The test system of the next experiment is heart. The note with it: cardiac contractility / heart rate SAR; cited from earlier work. The source says: Table 3 DrmMS and analogs: structures and activities. | column: Heart || [6–10]DrmMS was the heart rate active core, yet [4–10]DrmMS was the gut motility active core. […] We believed DrmMS-DrmMS-R1 and DrmMS-DrmMS-R2 interactions would reflect our SAR data. N-terminal truncated and alanyl-substituted analogs (Table 3) were docked to the receptors; additional data are available in Supporting Information. In DrmMS docked to DrmMS-R1 (Fig. 4, Table 4), F7 made multipl ...

The subject of the next experiment is gut. The note with it: gut motility SAR; cited from earlier work. The source says: Table 3 DrmMS and analogs: structures and activities. | column: Gut || [6–10]DrmMS was the heart rate active core, yet [4–10]DrmMS was the gut motility active core. […] We believed DrmMS-DrmMS-R1 and DrmMS-DrmMS-R2 interactions would reflect our SAR data. N-terminal truncated and alanyl-substituted analogs (Table 3) were docked to the receptors; additional data are available in Supporting Information. In DrmMS docked to DrmMS-R1 (Fig. 4, Table 4), F7 made multipl ...

Regarding `CC[C@H](C)[C@H](NC(=O)[C@H](CC(=O)O)NC(=O)[C@@H]1CCC(=O)N1)C(=O)N[C@@H](CC(=O)O)C(=O)N[C@@H](Cc1c[nH]cn1)C(=O)N[C@H](C(=O)N[C@@H](Cc1ccccc1)C(=O)N[C@@H](CCSC)C(=O)N[C@@H](CCCNC(=N)N)C(=O)N[C@@H](Cc1ccccc1)C(N)=O)C(C)C` [RhpMS] ([pGlu]DIDHVFMRF-NH2), the EC50 with R. prolixus heart was determined as 140 nM. Besides, in the experiment with R. prolixus heart (peptide at 1 μM, saline = 100%, ten animals per experiment), the “Heart Rate Mean ± S.E.M., percent of saline” value was 4 % of saline and 4 ± 3 % of saline. As for “DHVFLRF-NH2 [[4–10]DrmMS, N-terminal truncated DrmMS analog DHVFLRF-NH2]”, the Heart activity result with heart was “agonist”. The Gut activity result in the experiment on gut is “active core”. Turning to “TDVDHVFARF-NH2 [[A8] DrmMS, alanyl-substituted DrmMS analog […]-NH2]”, the Heart activity entry in the experiment with heart is “agonist”. Further, in the experiment on gut, the Gut activity result is “inactive”.

Take DHVFMRF-NH2 [[4–10]RhpMS]: the EC50 with R. prolixus heart stood at 32 nM. For the compound “HVFLRF-NH2 [[5–10]DrmMS, N-terminal truncated DrmMS analog HVFLRF-NH2]”, the Heart activity result with heart is “agonist”. In addition, in the experiment with gut, the Gut activity result is given as “antagonist”. Y-T(Bpa)VDHVFLRF-NH2 [Y-Bpa2DrmMS]: the Heart activity entry in the experiment with heart is “agonist”. Besides, in the experiment on gut, the Gut activity entry is given as “agonist”. On to “VFLRF-NH2 [[6–10]DrmMS, N-terminal truncated DrmMS analog VFLRF-NH2]”, for which the Heart activity result in the experiment with heart is on record as “active core”. Also, the Gut activity entry in the experiment with gut is “inactive”.

For “FLRF-NH2 [[7–10]DrmMS, N-terminal truncated DrmMS analog FLRF-NH2]”, in the experiment with heart, the Heart activity entry was “inactive”. In addition, in the experiment on gut, the Gut activity entry was “inactive”. For the compound TDVDHVFLRF-NH2 [DrmMS], the EC50 with R. prolixus heart was 50 nM.
